# From patent US20220323437A1, “METHODS FOR TREATING PULMONARY ARTERIAL HYPERTENSION” (ACTELION PHARMACEUTICALS LTD, priority 2019, published 2022)
# Read-outs that look alike come from different tables or passages of the source.
# Columns and labels:
# [1] = Pharmacokinetics of selexipag and ACT-333679 after oral and i.v. selexipag in subjects with stable PAH (Phase 3 switch study); assay type: in vivo, human; conditions: for AUC / Cmax: human, plasma, steady state; for AUC: read-out: AUCτ, ss Geom. Mean; for Cmax: read-out: Cmax, ss Geom. Mean
# Procedure: This was a prospective, multicenter, open-label, single-sequence, cross-over, Phase 3 study. Based on the dose of selexipag received at study entry, subjects were allocated to one of the following groups, selexipag 200-1000 μg b.i.d. or selexipag 1200-1600 μg b.i.d. See, FIG. 1. The study comprised the following periods:
# (ii) Treatment and observation period: The treatment and observation period included the following consecutive periods: • Period 1 included oral selexipag pre-treatment period for 1 day, in-hospital. This period started with intake of the morning dose of oral selexipag on Day 1 at Visit 2 and ended the following day, before initiation of the first infusion of i.v. selexipag. • Period 2 included i.v. selexipag treatment period for 36 hours [3 infusions], in-hospital. This period started in the morning of Day 2 at Visit 2 with the start of the first infusion of i.v. selexipag and ended in the evening of Day 3 at Visit 2 before the evening administration of oral selexipag. Administration of oral selexipag was interrupted during the i.v. selexipag treatment period. • Period 3 included oral selexipag post-treatment period for 7 to 11 day. This period started in the evening of Day 3 at Visit 2 with the administration of oral selexipag and ended 7-11 days later, at Visit 3.
# Selexipag was provided as a dry powder to be reconstituted as an injectable solution for i.v. administration. Before administration, selexipag dry powder was to be reconstituted and diluted with sterile 0.9% NaCl solution. Each subject received an i.v. selexipag dose that corresponded to the subject's individual stable dose of oral selexipag. […] See, Table 4.
# The intravenous infusion took place over a 87-minute period (2 infusions on Day 2 and 1 infusion on Day 3)
# The following PK endpoints were analyzed for selexipag and its active metabolite, ACT-333679, after oral selexipag in Period 1 and after i.v. selexipag administration in Period 2. See, FIG. 2. • The area under the plasma-concentration time curve (AUC) during a dose interval at steady state (AUCτ, ss). • The maximum plasma concentration at steady state (Cmax, ss). • The time to reach maximum plasma concentration at steady state (tmax, ss). • Trough plasma concentration at steady state (Ctrough, ss).
# [2] = Vital signs, ECG, laboratory variables and WHO FC during switch from oral to i.v. selexipag in subjects with stable PAH; assay type: in vivo, human
# Procedure: This was a prospective, multicenter, open-label, single-sequence, cross-over, Phase 3 study. Based on the dose of selexipag received at study entry, subjects were allocated to one of the following groups, selexipag 200-1000 μg b.i.d. or selexipag 1200-1600 μg b.i.d. See, FIG. 1. The study comprised the following periods: (ii) Treatment and observation period: The treatment and observation period included the following consecutive periods: • Period 1 included oral selexipag pre-treatment period for 1 day, in-hospital. This period started with intake of the morning dose of oral selexipag on Day 1 at Visit 2 and ended the following day, before initiation of the first infusion of i.v. selexipag. • Period 2 included i.v. selexipag treatment period for 36 hours [3 infusions], in-hospital. This period started in the morning of Day 2 at Visit 2 with the start of the first infusion of i.v. selexipag and ended in the evening of Day 3 at Visit 2 before the evening administration of oral selexipag. Administration of oral selexipag was interrupted during the i.v. selexipag treatment period. • Period 3 included oral selexipag post-treatment period for 7 to 11 day. This period started in the evening of Day 3 at Visit 2 with the administration of oral selexipag and ended 7-11 days later, at Visit 3. The endpoints analyzed for (i) Period 1, Period 2, and Period 3 and follow-up period combined (ii) Period 1 and Period 2 combined, and (iii) Period 2 and Period 3 combined included discontinuations due to prostacyclin-associated AEs, discontinuations due to any AEs, AEs and SAEs, prostacyclin-associated AEs, PAH-related AEs, change from baseline in vital signs (systolic blood pressure [SBP], diastolic blood pressure [DBP], and pulse rate) and body weight, ECG abnormalities, marked laboratory abnormalities, and change from baseline in WHO FC.
# [3] = selexipag versus placebo; cited from earlier work
# [4] = Period 1 (oral selexipag), total, N = 20
# [5] = Period 2 (iv selexipag), total, N = 20
# [6] = Period 2, high dose cohort (1200-1600 μg), N = 12
# [7] = Period 2, low dose cohort (200-1000 μg), N = 8
# [8] = Period 3 (oral selexipag) + Follow-up, total, N = 20
structure (smiles),measurement,setting,value
"CC(C)N(CCCCOCC(=O)NS(C)(=O)=O)c1cnc(-c2ccccc2)c(-c2ccccc2)n1 [selexipag, 2-{4-[(5,6-diphenylpyrazin-2-yl)(propan-2-yl)amino]butoxy}-N-(methanesulfonyl)acetamide]","tmax, ss between the i.v. and oral selexipag periods",[1]; Period 2 vs Period 1,comparable
same,slope of dose proportional increase in exposure,"[1]; after i.v. selexipag, 450-1800 μg b.i.d. dose range",0.798
same,AUC,"[1]; iv, Period 2 (i.v. selexipag)",18.8 ng·h/mL
same,Cmax,"[1]; iv, Period 2 (i.v. selexipag)",7.8 ng/mL
same,AUC,[1]; Period 1 (oral selexipag),8.7 ng·h/mL
same,Cmax,[1]; Period 1 (oral selexipag),3.9 ng/mL
same,"dose-normalized geometric mean ratio (i.v./oral selexipag) for AUCτ, ss (90% CI)",[1]; i.v. to oral dose ratio 1.125,"2.13 (1.67, 2.70)"
same,"dose-normalized geometric mean ratio (i.v./oral selexipag) for Cmax, ss (90% CI)",[1]; i.v. to oral dose ratio 1.125,"1.98 (1.62, 2.43)"
same,Incidence of DBP < 50 (mmHg),[2]; [4],0 n (%)
same,Incidence of DBP decrease from baseline > 20 (mmHg),[2]; [4],1 (5.0) n (%)
same,Incidence of DBP ≥ 100 (mmHg),[2]; [4],0 n (%)
same,Incidence of SBP < 90 (mmHg),[2]; [4],0 n (%)
same,Incidence of SBP decrease from baseline > 40 (mmHg),[2]; [4],0 n (%)
same,Incidence of SBP ≥ 160 (mmHg),[2]; [4],0 n (%)
same,subjects with QTcF prolongation to >450 ms,[2]; Period 2,3 subjects
same,subjects with QTcF prolongation to >480 ms,[2]; Period 2,4 subjects
same,Incidence of DBP < 50 (mmHg),[2]; [5],5 n (%)
same,Incidence of DBP decrease from baseline > 20 (mmHg),[2]; [5],3 n (%)
same,Incidence of DBP ≥ 100 (mmHg),[2]; [5],0 n (%)
same,Incidence of SBP < 90 (mmHg),[2]; [5],2 n (%)
same,Incidence of SBP decrease from baseline > 40 (mmHg),[2]; [5],2 n (%)
same,Incidence of SBP ≥ 160 (mmHg),[2]; [5],1 n (%)
same,mean change from pre- to post-infusion in heart rate,"[2]; Period 2, infusion 1",2.1 bpm
same,mean change from pre- to post-infusion in heart rate,"[2]; Period 2, infusion 2",0.1 bpm
same,mean change from pre- to post-infusion in heart rate,"[2]; Period 2, infusion 3",3.5 bpm
same,Incidence of DBP < 50 (mmHg),[2]; [6],3 n (%)
same,Incidence of DBP decrease from baseline > 20 (mmHg),[2]; [6],2 n (%)
same,Incidence of DBP ≥ 100 (mmHg),[2]; [6],0 n (%)
same,Incidence of SBP < 90 (mmHg),[2]; [6],1 n (%)
same,Incidence of SBP decrease from baseline > 40 (mmHg),[2]; [6],1 n (%)
same,Incidence of SBP ≥ 160 (mmHg),[2]; [6],1 n (%)
same,Incidence of DBP < 50 (mmHg),[2]; [7],2 (25.0) n (%)
same,Incidence of DBP decrease from baseline > 20 (mmHg),[2]; [7],1 (12.5) n (%)
same,Incidence of DBP ≥ 100 (mmHg),[2]; [7],0 n (%)
same,Incidence of SBP < 90 (mmHg),[2]; [7],1 (12.5) n (%)
same,Incidence of SBP decrease from baseline > 40 (mmHg),[2]; [7],1 (12.5) n (%)
same,Incidence of SBP ≥ 160 (mmHg),[2]; [7],0 n (%)
same,Incidence of DBP < 50 (mmHg),[2]; [8],0 n (%)
same,Incidence of DBP decrease from baseline > 20 (mmHg),[2]; [8],2 (10.0) n (%)
same,Incidence of DBP ≥ 100 (mmHg),[2]; [8],0 n (%)
same,Incidence of SBP < 90 (mmHg),[2]; [8],0 n (%)
same,Incidence of SBP decrease from baseline > 40 (mmHg),[2]; [8],0 n (%)
same,Incidence of SBP ≥ 160 (mmHg),[2]; [8],0 n (%)
same,subjects (of the 7 with QTcF prolongation in Period 2) who already had QTcF prolongation to >450 ms in Period 1,[2]; Visit 2 Day 2 prior to the start of i.v. infusion,6
same,AE of hypotension,[2]; any subject,no AE of hypotension
same,changes in systolic blood pressure of >40 mmHg,[2]; any subject,No changes
same,"hemoglobin, mean change from baseline",[2]; at Visit 3 (Day 12±2 days),1.2 g/L
same,"hemoglobin, mean change from baseline",[2]; baseline (129.4 g/L) to Visit 2 Day 3,-5.7 g/L
same,changes in WHO FC,"[2]; during the study, any subject",No changes
same,changes from baseline in other hematology and clinical chemistry variables,"[2]; human, in vivo",unremarkable
same,risk of the primary composite end point of death or a complication related to pulmonary arterial hypertension,[3],significantly lower
